Read-outs that look alike come from different tables or passages of the source. One block for each molecule: values may come before it.
How the values were obtained:
membrane-associated PKC = experiment: Inhibition of B16F1 membrane-associated PKC activity; type: biochemical, murine; details: B16F1 membrane fraction
Experimental: (§1) Protein Kinase C Preparation
(§2) Cytostolic and membrane-associated PKC was prepared as described in Thomas, T. P., Gopalakrishna, R. and Anderson, W. B. Hormone- and tumor promoter-induced activation of membrane association of protein kinase C in intact cells, Methodsin Enzymology, 141: 399-411, 1987. Sub-confluent B16F1 cultures (4×10^7 cells total) were washed twice with phosphate buffered saline (PBS), pH 7.2 and then twice with buffer A (20 mM Tris, pH 7.5, 2 mM EDTA, 0.5 mM EGTA, […], 2 mM phenylmethylsulfonyl fluoride (PMSF), and 2 μg/ml leupeptin). Cells were scraped from the plates in buffer A, homogenized (40 strokes) and sedimented by centrifugation for 1 hour at 100,000 g. The cytosol was stored on ice while the particulate fraction was washed with buffer B (20 mM Tris, pH 7.2, 2 mM EDTA, 0.5 mM EGTA, and 2 mM (PMSF). The membranes were resuspended with buffer B and homogenized with 10 strokes. Nonidet P-40 (1% final concentration) was added and the mixture was incubated for 30 minutes at 4° C. in a rotating mixer. Nonsolubilized material was removed by centrifugation for 10 minutes at 1400 g. Cytostolic and membrane-bound PKC was partially purified by chromatography over 1 ml columns of DE-52 (Whatman) equilibrated with buffer B. The enzyme was applied to the column and washed with 2×3 ml buffer B. Elution of PKC was then effected by the addition of 2 ml buffer B containing 100 mM NaCl.
(§3) PKC was quantitated as described in Thomas et al., ibid. The assay contained 20 mM Tris (pH 7.5), 0.75 mM CaCl, 10 mM magnesium acetate, […] histone III-S, 0.25 μg/ml leupeptin, 100 μM [gamma-^32 p]-ATP (120 cpm/pmol), 0.96 μg/ml phosphatidylserine, and 0.0064 μg/ml 1,2-diolein in a total assay volume of 250 μl. Blanks contained no calcium or phospholipids. Incubation was for 5 minutes at 30° C. at which point the reaction was terminated by the addition of 1 ml 25% trichloroacetic acid (TCA). Samples were applied to Whatman GF/B filters, the tube rinsed twice with 5% TCA and the filter then washed 5 times with 5% TCA.

cytosolic PKC = experiment: Inhibition of B16F1 cytosolic PKC activity; type: biochemical, murine; details: B16F1 cytosol fraction
Experimental: as §1, §2, §3
^a Subconfluent B16F1 cells were harvested and cytosol and membrane
fractions prepared as described in Materials and Methods. PKC activity wa
then measured in the presence of the drugs listed.

B16F1 cells = experiment: Experimental lung metastasis assay (B16F1 cells treated in culture, then injected intravenously into C57BL/6 mice); type: in vivo, murine (C57BL/6 mice); details: Mus musculus, B16-F1, iv, read-out: B16 Metastasis IC50
Experimental: Experimental Metastasis Assay
Sub-confluent B16F1 cells were harvested by washing with HBSS followed by trypsinization for 1 minute. The cells were sedimented by centrifugation (250 g, 5 minutes) and washed twice with HBSS. Viable cells were counted after dilution with trypan blue. A single-cell suspension of 10^5 cells in 0.2 ml HBSS was injected intravenously into 16-18 C57BL/6 mice via the tail vein. Three weeks later, the number of metastatic foci in the lung were counted.

[1] = tested on: SP1 mouse mammary adenocarcinoma cells; details: cells normally do not metastasize; cited from earlier work
fibrinogen = experiment: Adhesion of B16F1 cells to fibrinogen; type: cell-based; details: 24 hours
Experimental: (§4) Adhesion of B16F1 Cells to Basement Membrane Proteins
(§5) Adhesion proteins (2 μg/well) were coated onto Immulon I Removawells from Dynatech and incubated for 1 hour at 37° C. The wells were then blocked for 1 hour with 400 μl PBS, pH 7.2 containing 1% bovine serum albumin (BSA) at 37° C. Prior to addition of the cell suspension, the blocking solution was aspirated.
(§6) Sub-confluent cells were washed twice with HBSS and removed form flasks by incubation for 10 minutes at 37° C. with PBS (pH 7.2), 2 mM EDTA, and 1% BSA. The cells were washed twice with MEM containing 20 mM HEPES and 0.1% BSA and resuspended in the same medium to give a cell density of […].
(§7) Cells were added to wells in 50 μl (5×10^4 cells) and incubated at 37° C. The wells were aspirated and washed three times with 400 μl PBS (pH 7.2) containing 0.1% BSA. Wells were detached and counted in 5 ml Beckman Ready Protein. Blanks were not coated with protein but were blocked with BSA as described above.

collagen IV = experiment: Adhesion of B16F1 cells to collagen IV; type: cell-based; details: 24 hours
Experimental: as §4, §5, §6, §7

[2] = tested on: B16F1 cells / human umbilical vein endothelial cells (HUVEC); experiment: Adhesion of B16F1 melanoma cells to endothelial cells (HUVEC); type: cell-based, murine B16F1 cells; human HUVEC
Experimental: Adhesion of Tumor Cells to Endothelial Cells
Round 15 mm Thermanox tissue culture cover slips from Lux were placed in Corning 12-well, 22 mm diameter tissue culture clusters. HUVEC (2×10^6) were added to each well and grown to confluency. Sub-confluent B16F1 cells were labeled with 1 μCi/ml [^3 H]-thymidine (New England Nuclear, 78.5 Ci/mmol) for 24 hours at 37° C.
In preparation for the adhesion assay, the tissue culture wells containing either HUVEC or no cells were blocked with MEM containing 20 mM HEPES and 1% BSA for 1 hour at 37° C. B16F1 cells were removed from the flasks as described above for adhesion to basement membrane proteins and diluted to a density of 2×10^5 viable cells/ml in MEM (viability determined by trypan blue exclusion).
Blocking solution was aspirated from the wells and 1 ml of cells were added per well and incubated at 37° C. Nonadherent cells were washed from coverslips as described in Wright, P. S., Cross-Doersen, D., McCann, P. P. and Bitonti, A. J., Plasmodium falciparum: a rapid assay for cytoadherence of [^3 H]-hypoxanthine-labeled infected erythrocytes to human melanoma cells, Exp. Parasitol., 71: 346-349, 1990. Coverslips were retrieved from the well with forceps and dipped 10 times into a beaker of 100 ml MEM. Coverslips were placed into scintillation vials and counted in 10 ml Beckman Ready Protein.
B16F1 cells were treated with 4-propyl-5(4-pyridinyl)-
(3H)-oxazolone for 24 hours at 37° C. Cells were then
harvested and added to wells containing confluent HUVEC
cells and incubated for the time indicated at 37° C. Details
are given in Materials and Methods.

[3] = tested on: Lewis lung carcinoma cells; details: cited from earlier work
[4] = tested on: B16 murine melanoma cells; details: cells treated in vitro, intravenous injection into mice; cited from earlier work
[5] = cells exposed to drugs for 24 hours, nodules counted three weeks later

IC50 (membrane-associated PKC): 250 µM
IC50 (cytosolic PKC): 500 µM
IC50 (B16F1 cells; [5]): 36 µM
Structure (SMILES): Cc1[nH]c(=O)oc1-c1ccncc1 [Compound 2, 4methyl-5-(4-pyridinyl)-2(3H)-oxazolone]

IC50 (membrane-associated PKC): 15 µM
IC50 (cytosolic PKC): 47 µM
IC50 (B16F1 cells; [5]): 68 µM
Structure (SMILES): CCc1[nH]c(=O)oc1-c1ccnc2ccccc12 [Compound 3, 4ethyl-5-(4-quinolinyl)-2(3H)-oxazolone]

IC50 (membrane-associated PKC): 94 µM
IC50 (cytosolic PKC): 62 µM
Structure (SMILES): CCCc1[nH]c(=O)oc1-c1ccnc2ccccc12 [Compound 4, 4propyl-5-(4-quinolinyl)-2(3H)-oxazolone]

Structure (SMILES): CNc1ccc2oc(C[C@H]3O[C@@]4(CC[C@H]3C)O[C@H]([C@H](C)C(=O)c3ccc[nH]3)[C@H](C)C[C@H]4C)nc2c1C(=O)O [Compound A23187]
metastasis from the primary tumor [1]: resulted in metastasis from the primary tumor

Structure (SMILES): CC1CNCCN1S(=O)(=O)c1cccc2cnccc12 (stereo not shown) [Compound H-7, reference compound]
IC50 (membrane-associated PKC): 71 µM
adhesion to fibrinogen (fibrinogen): Neither H-7 nor staurosporine inhibited adherence
IC50 (cytosolic PKC): 180 µM
adhesion to collagen IV (collagen IV): Neither H-7 nor staurosporine inhibited adherence
IC50 (B16F1 cells): 12.5 µM
adherence to HUVEC [2]: Neither H-7 nor staurosporine inhibited adherence

Structure (SMILES): CCCCCCCCCCCCCC(=O)O[C@@H]1[C@@H](C)[C@@]2(O)[C@@H](C=C(CO)C[C@]3(O)C(=O)C(C)=C[C@@H]23)[C@@H]2C(C)(C)[C@]12OC(C)=O [PMA, phorbol-12-myristate-13-acetate]
metastasis from the primary tumor [1]: resulted in metastasis from the primary tumor
adhesion to endothelial cells [3]: enhancement of adhesion to endothelial cells
number of metastatic foci in lungs [4]: increased numbers of metastatic foci in lungs

Structure (SMILES): CN[C@@H]1C[C@H]2O[C@@](C)([C@@H]1OC)n1c3ccccc3c3c4c(c5c6ccccc6n2c5c31)C(=O)NC4 [Staurosporine, reference compound]
adhesion to fibrinogen (fibrinogen): Neither H-7 nor staurosporine inhibited adherence
IC50 (cytosolic PKC): 0.019 µM
adhesion to collagen IV (collagen IV): Neither H-7 nor staurosporine inhibited adherence
adherence to HUVEC [2]: Neither H-7 nor staurosporine inhibited adherence

— patent US5610171A, “Inhibition of metastasis in patients having cancer with pyridyloxazole-2-ones” (Merrell Pharmaceuticals Inc., priority 1995, dated 1997)
